Assay results from US20250170183A1, “METHOD FOR ENRICHING MUSE CELLS AND OBTAINING EXOSOMES, MICROVESICLES OR THE SECRETOME THEREFROM” (priority 2022, published 2025).

Test system: Carrageenan-induced paw edema
Test: Carrageenan-induced paw edema model
Type: in vivo, C57BL/6 mice
Settings: single i.p. dose, 1.5 hours after administration; FIG. 5
Protocol: In order to assess the anti-inflammatory effect of the Muse cell derived EVs, various EV fractions were analyzed for anti-inflammatory efficacy using the paw edema model [16].
In our initial experiment, fifty-five female C57BL/6 mice (Charles River, Eastern Europe) were randomly assigned to one of five treatment groups: • (1) (−) Control (PBS) • (2) (+) Control (Dexamethasone: 20-30 mg/kg) • (3) EV100 (1, 10, or 100 billion EVs) • (4) EV500 (1, 10, or 100 billion EVs) • (5) Muse cell enriched culture (100K, 1 million, or 10 million cells)
Paw edema was induced in each animal by intra-plantar injection of 20 μl of a 1% (w/v) aqueous Carrageenan solution (SIGMA Aldrich) into the right hind paw.
Thirty minutes after the carrageenan injection, each animal received one dose of the control agent (treatment groups 1-2) or experimental agents (treatment groups 3-5) according to the respective assigned treatment group. The agent was administered by intra peritoneal (i.p.) injection. PBS was also used to resuspend EV100 and EV500 samples.
The intensity of the edema development and/or the amelioration thereof was assessed by measuring the paw width (the distance from one outer finger to the opposite outer finger) or paw thickness of the treated paw prior to treatment administration, and 2 h, 24 h, 48 h, and 72 h after administration of the control and experimental agents. […]

Compound: C[C@@H]1C[C@H]2[C@@H]3CCC4=CC(=O)C=C[C@]4(C)[C@@]3(F)[C@@H](O)C[C@]2(C)[C@@]1(O)C(=O)CO [dexamethasone]
- paw thickness, immediate response: no effect
